The record followed here is patent US11471414B2, “Compositions and methods for the treatment and prophylaxis of surgical site infections” (Polypid Ltd., priority 2014, dated 2022).

For this assay, the system named is Staphylococcus aureus (ATCC 29213) preformed biofilm. As to the kind of experiment: MBEC Physiology and Genetics Assay, eradication of an established biofilm. Type of assay: cell-based. On the procedure: The effectiveness of tri-calcium phosphate granules coated with a matrix composition according to embodiments of the invention in eradicating established biofilm was measured using the MBEC™ (Minimum Biofilm Eradication Concentration) Physiology and Genetics Assay.
MBEC™ Test Method Overview: MBEC™ test method specifies the operational parameters required to grow and treat different bacterial biofilms in a high throughput screening assay. The assay device consists of a plastic lid with ninety-six (96) pegs and a corresponding receiver plate with ninety-six (96) individual wells that have a maximum 200 μL working volume. Biofilm is established on the pegs in a batch culture based model (i.e., no flow of nutrients into or out of an individual well) with gentle mixing. The established biofilm is transferred to a new receiver plate for disinfectant efficacy testing.
Test Organisms: Staphylococcus aureus (an osteomyelitis-related strains); source: ATCC
29213; Dilution/Challenge Media: 1,000×TSB+10% human serum 24 hrs; Growth Media/agar: Tryptic Soy Broth/Tryptic Soy agar for 24 hrs Aerobic cond.
TEST METHOD overview: The experimental process for high-throughput antimicrobial susceptibility testing using the hydroxyapatite coated MBEC™ P&G assay. This standard protocol was broken into a series of small steps, each of which is detailed in the sections below.
Using a cryogenic stock (at −70° C.), a first sub-culture of Staphylococcus aureus was streaked out on OSA (organism specific agar). The plates were incubated at appropriate growth conditions for 20±2.0 hours and further stored at 4° C.
A second sub-culture taken from the first sub-culture was streaked out on OSA. The plates were incubated at appropriate growth conditions for 20±2.0 hours. An isolated colony from the second sub-culture was aseptically removed from the OSA plate and inoculated into 50 mL of sterile bacterial liquid growth broth, followed by incubation appropriate growth conditions for 20±2.0 hours (at 150 rpm).
The inoculum was adjusted to an approximate cell density of 10^6 CFU/mL.
150 μL of the remaining diluted organism were placed in each of the corresponding wells of an MBEC™ P&G device except the sterility controls (Table 5). The device was placed on an orbital shaker (110 RPM) in a humidified incubator at 37±1° C.
The biofilm formed on the lid of the MBEC device was rinsed by dipping the lid into saline (˜30 seconds) to remove planktonic cells. The lid was then put on top of the challenge plate and incubated on a rotary shaker at 110 rpm at 35±2° C. for 24±2 hours.
After incubation (specified above), planktonic cells were rinsed off the biofilm by dipping the lid into saline (˜20-30 seconds). The lid was then transferred to a neutralizer/recovery plate and put in a sonicator (˜30 minutes) to dislodge surviving biofilm.
Following sonication, 100 μL from each well of the MBEC™ plate, were put into the first 12 empty wells of the first row of a 96 well-micro titer plate and were further diluted by 10 fold down each of the 8 rows (10^0-10^7 dilution). 5 μL from each well were then used for spotting prepared OSA plates. The agar plates were incubated at 37±1° C. and counted after approximately 24-48 hours of incubation. The arithmetic mean of the number of colonies counted on the plates was calculated.
100 μL of the sterile neutralizer was added to each well of the recovery plate to top up the volume back to 200 μL. The refilled plate is incubated at 35±2° C. for 24±2 hours.
Comparator MBEC results were determined following the 24±2 hour incubation using the plate reader.
The log density for one peg was calculated as follows: LOG10(CFU/peg)=LOG10[(X/B)(D)] where: X=mean CFU; B=volume plated (0.02 mL) and D=dilution.
The overall biofilm accumulation was determined by calculating the mean of the log densities calculated.
LOG10 reduction for each dilution was calculated as follows: LOG10 Reduction=Mean LOG10 Growth Control−Mean LOG10 Test Sample.

On to Gentamicin, for which the “Log Reduction (Log R) vs. GC (growth control)” value (“Log Reduction (Log R) vs. GC” below) (D 0.5) is listed as 1.11; the “Log Reduction (Log R) vs. GC” value (D 1.0) is 1.38; the “Log Reduction (Log R) vs. GC” value (D 2.0) came out at 2.90; the “Log Reduction (Log R) vs. GC” value (D 4.0) was 3.29; the “Log Reduction (Log R) vs. GC” value (D 8.0) is 4.59; the “Log Reduction (Log R) vs. GC” value (D 16) was found to be 4.59. Further, the “Log Reduction (Log R) vs. GC” value (D 32) came to 4.59. The “Average Log10 CFU/peg recoveries” value runs as follows: (D 0.5 (μg)) 3.48 Log10 CFU/peg; (D 1.0 (μg)) 3.21 Log10 CFU/peg; (D 2.0 (μg)) 1.69 Log10 CFU/peg; (D 4.0 (μg)) 1.31 Log10 CFU/peg; (D 8.0 (μg)) 0.00 Log10 CFU/peg; (D 16 (μg)) 0.00 Log10 CFU/peg. Moreover, the “Average Log10 CFU/peg recoveries” value (D 32 (μg)) amounted to 0.00 Log10 CFU/peg.
